The structures appear in SMILES notation.

Test [1] has as its system Murine spleen cells. Description: spleen cell proliferation reaction (thymidine incorporation). Type of test: cell-based. The conditions noted are these: FIG. 7 and FIG. 9. Here is the method: Murine spleen cells were isolated, and the proliferation reaction for the synthesized glycolipids were measured using thymidine incorporation into the cells as the indicator.
(§1) Murine spleen cells were isolated, and the proliferation reactions for synthesized glycolipids were measured using thymidine incorporation into the cells as the indicator. […] Murine spleen cells were isolated, and levels of INF-γ and IL-4 formation due to the synthesized glycolipids were measured using the ELISA method.
In general terms: Uptake of a labelled nucleoside into DNA is a usual measure of proliferation.

In test [2] the test system is Murine spleen cells. Description: spleen cell cytokine measurements (INF-γ and IL-4, ELISA). It counts as cell-based. The conditions noted are these: FIG. 8 and FIG. 9. The procedure:
Murine spleen cells were isolated, and levels of INF-γ and IL-4 formation due to synthesized glycolipids were measured using the ELISA method.
as §1
On the technique in general: An ELISA detects its analyte on a solid surface through an enzyme-linked reagent.

For test [3], the system named is experimental autoimmune encephalomyelitis (EAE). Description: mechanism of EAE suppression, with or without anti-IL-4 antibody. Type of test: in vivo, mice.
Another test concerns serum INF-γ and IL-4. Put plainly: cytokines in blood (serum INF-γ and IL-4, ELISA). Type of test: in vivo. The conditions noted are these: administered to mice, serum levels with elapsed time, FIG. 6. Here is the method: A large amount of cytokine is known to be released into the blood in a short duration of time when NKT cells are stimulated. Therefore, serum INF-γ and IL-4 levels with elapsed time were measured using the ELISA method when the synthesized glycolipids were administered to mice.

Test [4] has as its system experimental autoimmune encephalomyelitis (EAE). Description: experimental autoimmune encephalomyelitis (EAE) suppression test, B6 mice. Type of test: in vivo, C57BL6J(B6) mice. The conditions noted are these: for Incidence / Onset / Total score / Max. score / Path. score: 400 ng/kg; for Path. score: pathological score 0-4; for EAE suppression effect: oral administration 400 ng/kg.

The subject of test [5] is experimental autoimmune encephalomyelitis (EAE), collagen induced arthritis. The conditions noted are these: J. Immunol. 2001, 166, 662-669, cited from earlier work.
Test [6] deals with experimental autoimmune encephalomyelitis (EAE). Put plainly: EAE suppression test in NKT knockout mice. It counts as in vivo, NKT knockout mice (TCR J alpha 281 knockout mice). The conditions noted are these: for Incidence / Max. score / Onset / Total score: NKT knockout mice, 0 day oral administration, 400 ng/kg.
In test [7] the test system is collagen induced arthritis. Description: collagen arthritis (CIA) suppression test, C57BL6 mice. It counts as in vivo. As to conditions: B6 mice, 500 μg/kg intraperitoneally twice a week from the additional immunization, FIG. 4.
For a further test, the system named is diabetes incidence. Put plainly: suppression test of diabetes incidence in NOD mice. It counts as in vivo. As to conditions: NOD mice four weeks in age, 100 μg/kg intraperitoneal, twice, FIG. 5. The procedure:
Next, a suppression test of diabetes incidence was conducted using NOD mice.

The subject of test [8] is collagen induced arthritis. Description: collagen arthritis (CIA) suppression test, SJL mice. Type of test: in vivo. The conditions noted are these: FIG. 4.
The test system of another test is anti-MOG antibody. Description: serum anti-MOG antibody measurements (ELISA). It counts as in vivo. As to conditions: FIG. 10. From the text:
The ELISA method was used to measure levels of anti-MOG antibody and its isotype in the group treated using synthesized glycolipids. The anti-MOG antibody level rose in the group treated using Compound 25.

The mark [9] stands for this setting: anti-IL-4 (+), anti-IL-4 antibody (1 mg/ml) intraperitoneally.
[10] abbreviates: 0 day oral administration, clinical score 0-6.

For the compound `CCCCCCCCCCCCCCCCCCCCCCCC(=O)N[C@@H](CO[C@H]1O[C@H](CO)[C@H](O)[C@H](O)[C@H]1O)[C@H](O)[C@H](O)CCC` [Compound 24, (2S,3S,4R)-1-O-(α-D-galactosyl)-2-(tetracosanoylamino)-1,3,4-heptane triol], the “spleen cell proliferation reaction” value in the test on Murine spleen cells [1] is “Significant spleen cell proliferation reaction”. Further, the “cytokine predominantly formed by spleen cells (INF-γ / IL-4)” value with Murine spleen cells [2] is listed as “IL-4 was predominantly formed”.
Take `CCCCCCCCCCCCCCCCCCCCCCCC(=O)N[C@@H](CO[C@H]1O[C@H](CO)[C@H](O)[C@H](O)[C@H]1O)[C@H](O)[C@H](O)CCCC` [Compound 23, (2S,3S,4R)-1-O-(α-D-galactosyl)-2-(tetracosanoylamino)-1,3,4-octane triol]: the “spleen cell proliferation reaction” value in the test with Murine spleen cells [1] was “Significant spleen cell proliferation reaction”. Moreover, in the test with Murine spleen cells [2], the “cytokine predominantly formed by spleen cells (INF-γ / IL-4)” value is given as “IL-4 was predominantly formed”.
On to `CCCCCCCCCCCCCCCCCCCCCCCCCC(=O)N[C@@H](CO[C@H]1O[C@H](CO)[C@H](O)[C@H](O)[C@H]1O)[C@H](O)[C@H](O)CCCCCCCCCCCCCC` [α-GC, (2S,3S,4R)-1-O-(α-D-galactosyl)-2-(N-hexacosanoylamino)-1,3,4-octadecane triol, reference compound], for which the Incidence in [3] (setting [9]) was 10/10; in [3] (anti-IL-4 (−)), 10/10; in test [4] (0 day oral administration) it was 12/12; in test [4] (8th day oral administration), 7/7; in test [6], 6/6. Further, the Max. score in test [3] (setting [9]) came out at 3.79 ± 0.29; in test [3] (anti-IL-4 (−)) it was 4.00 ± 0.25; in [4] (setting [10]), 2.41 ± 0.37; in [4] (8th day oral administration) it was 3.00 ± 0.29; in test [6], 3.67 ± 0.42. The Onset in test [3] (setting [9]) is reported as 11.29 ± 1.58; in [3] (anti-IL-4 (−)) it was 9.10 ± 0.84; in test [4] (0 day oral administration), 14.27 ± 0.98; in test [4] (8th day oral administration) it was 13.86 ± 0.99; in [6] it was 13.33 ± 1.41. Moreover, the Total score was 37.00 ± 5.02 in test [3] (setting [9]); 45.00 ± 3.87 in test [3] (anti-IL-4 (−)); 20.32 ± 4.07 in test [4] (0 day oral administration); 17.50 ± 2.74 in test [4] (8th day oral administration); 32.25 ± 6.66 in [6]. The “serum cytokine predominantly formed (INF-γ / IL-4)” value with serum INF-γ and IL-4 was “INF-γ was predominantly formed”. In addition, the “cytokine predominantly formed by spleen cells (INF-γ / IL-4)” value in the test on Murine spleen cells [2] was “INF-γ was predominantly formed”. Besides, the Path. score in test [4] (0 day oral administration) is reported as 1.79 ± 0.38. For the same compound, the EAE suppression effect entry in test [4] (result in words) is “no suppression effect was observed”. The “effect in suppressing or treating autoimmune diseases” value in test [5] (EAE and collagen induced arthritis models) is listed as “clearly not effective”. Besides, the cytokines induced result in test [5] is reported as “induces both IL-4, a cytokine that suppresses autoimmune diseases, as well as IFN-γ”.
`CCCCCCCCCCCCCCCCCCCCCCCC(=O)N[C@@H](CO[C@H]1O[C@H](CO)[C@H](O)[C@H](O)[C@H]1O)[C@H](O)[C@H](O)CCCCC` [Compound 25, (2S,3S,4R)-1-O-(α-D-galactosyl)-2-(tetracosanoylamino)-1,3,4-nonane triol]: the “suppression of collagen induced arthritis (clinical score)” value in test [7] is listed as “A suppression effect was observed”; in [8] (500 μg/kg intraperitoneally twice a week from the additional immunization) it was “effectively suppressed”; in [8] (500 μg/kg intraperitoneally twice a week, administration upon appearance of symptoms) it was “effectively suppressed”. In addition, the diabetes incidence entry in the test on diabetes incidence is recorded as “significantly suppressed”. Further, the “spleen cell proliferation reaction” value with Murine spleen cells [1] is on record as “Significant spleen cell proliferation reaction”. Moreover, the Incidence in [3] (setting [9]) is 10/10; in test [3] (anti-IL-4 (−)), 9/10; in test [4] (0 day oral administration) it was 10/12; in [4] (8th day oral administration), 6/7; in test [6] it was 6/6. The Max. score in test [3] (setting [9]) came to 3.50 ± 0.15; in [3] (anti-IL-4 (−)) it was 2.75 ± 0.37; in test [4] (setting [10]) it was 1.42 ± 0.33; in [4] (8th day oral administration) it was 2.25 ± 0.51; in test [6], 3.64 ± 0.28. Further, the Onset is given as 9.43 ± 0.90 in test [3] (setting [9]); 11.00 ± 0.78 in [3] (anti-IL-4 (−)); 14.80 ± 1.22 in test [4] (0 day oral administration); 16.43 ± 1.95 in test [4] (8th day oral administration); 12.43 ± 0.53 in test [6]. The Total score was 38.79 ± 2.94 in test [3] (setting [9]); 26.05 ± 4.16 in test [3] (anti-IL-4 (−)); 10.71 ± 3.23 in test [4] (0 day oral administration); 10.94 ± 3.40 in test [4] (8th day oral administration); 34.36 ± 4.15 in test [6]. For the same compound, the “EAE suppression effect when anti-IL-4 antibody was administered” value in test [3] (anti-IL-4 antibody, result in words) is recorded as “disappeared”. In the test on anti-MOG antibody, the “anti-MOG antibody isotype, IgG1 level” value is on record as “rose significantly”. For the same compound, the anti-MOG antibody level entry with anti-MOG antibody is given as “rose”. For the same compound, the “serum cytokine predominantly formed (INF-γ / IL-4)” value in the test with serum INF-γ and IL-4 was “IL-4 was predominantly formed”. For the same compound, the “cytokine predominantly formed by spleen cells (INF-γ / IL-4)” value with Murine spleen cells [2] was “IL-4 was predominantly formed”. In [4] (0 day oral administration), the Path. score came out at 1.00 ± 0.13. Besides, the EAE suppression effect result is listed as “EAE suppression effect was observed” in [4] (result in words) and “could not be observed” in test [6] (NKT knockout mice (TCR J alpha 281 knockout mice), result in words). Further, the “suppression effect in the pathological test” value in test [4] (oral administration, result in words) is reported as “suppression effect was observed”.

These data come from patent US8367623B2, “Glycolipid and medicine for autoimmune disease containing the same as active ingredient” (Japan as Represented by President of National Center of …, priority 2001, dated 2013).
